Reference: patent US20030105360A1, “Form a of fluoxetine hydrochloride” (priority 2001, published 2003)

Format: physicochemical
Experimental: Using the appropriately precise DSC method set forth in Example 12 herein, wherein the analysis is conducted at a maximum rate of 1° C. per minute, multiple levels of polymorph Forms A, B, and C each are typically present in fluoxetine hydrochloride API (FIGS. 2 and 4). When such API is prepared via any one of the methods of the present invention, recrystallization, slurry, and compression, and analyzed using said DSC method, a single endotherm occurring at a temperature range from about 155° C. to about 160° C., and more preferably from about 157° C. to about 159° C., confirms the presence of Form A of fluoxetine hydrochloride (FIGS. 6 and 8 for the compression and slurry methods, respectively). […] Accordingly, the slurry method for preparing pure and essentially pure Form A is preferred, while the compression method is especially preferred.
Differential Scanning Calorimetry for fluoxetine hydrochloride. The method described in Example 11 was used, except the heating rate was changed from 10° C. per minute to a heating rate of 1° C. per minute from 145° C. to 175° C.

CNCCC(Oc1ccc(C(F)(F)F)cc1)c1ccccc1.Cl (racemic) [Form A, (±)-N-methyl-3-phenyl-2-[α,α,α-trifluoro-p-tolyl) oxy] propylamine hydrochloride]
polymorphic forms found by DSC after storage under accelerated stability conditions: two additional polymorphs of fluoxetine hydrochloride, Forms D and E, were prepared | polymorphic forms found by DSC thermogram (FIG. 11) after storage (pure Form A prepared via recrystallization method, stored at 40° C. and 75% relative humidity, within three days): Forms A, D, and E, which formed within three days
